Results taken from patent US20240148821A1, “PHARMACEUTICAL USE OF CYCLIC PEPTIDE COMPOUND” (CHUGAI SEIYAKU KABUSHIKI KAISHA, priority 2021, published 2024).
Where two headings read alike, the source gives them in different places. Bridge positions count the residues as written; N and C are the ends. Square brackets hold non-standard residues; d marks the D form. Peptide text beside a SMILES is read from it. * marks the point of attachment. hPhe(3,5-F2-4-CF3) = N[C@@H](CCc1cc(F)c(C(F)(F)F)c(F)c1)C(=O)O; hPhe(3-Cl-4-CF3) = N[C@@H](CCc1ccc(C(F)(F)F)c(Cl)c1)C(=O)O; NEtPhe(4-Me) = CCN[C@@H](Cc1ccc(C)cc1)C(=O)O; NMeGly(cPent) = CN[C@H](C(=O)O)C1CCCC1; NMeCha = CN[C@@H](CC1CCCCC1)C(=O)O; NMeChg = CN[C@H](C(=O)O)C1CCCCC1; NMeD = CN[C@@H](CC(=O)O)C(=O)O; NMeL = CN[C@@H](CC(C)C)C(=O)O; NMeA = CN[C@@H](C)C(=O)O; Piperidide = C1CCN(*)CC1; Ac5c = NC1(C(=O)O)CCCC1; Aze = O=C(O)[C@@H]1CCN1; Sar = CNCC(=O)O

Tests used:
[1] = test system: Human pancreatic cancer cell line AsPC-1 (G12D mutation Kras); assay: AsPC-1 cell growth inhibition (AsPC-1 CGI); format: cell-based; conditions: read-out: AsPC-1 cell growth inhibition, 50% growth inhibitory concentration (IC50 value); 96 hours, CellTiter-Glo, values classified in ranges
Description: Test compounds were serially dilated with dimethyl sulfoxide, and 200 nL was then dispensed to a U-bottom 96-well plate using Labcyte Echo. […] The cell suspension was dispensed to a. plate containing a test compound at 100 μL per well and incubated at 37° C. in a 5% carbon dioxide gas incubator. 96 hours later, 80 μL of CellTiter-Glo (Promega) was added to each well and fluorescence was measured.

[2] = test system: various cancer cell lines (Ras mutation or amplification); assay: Measurement of cell growth inhibitory activity against various cancer cell lines (CellTiter-Glo); format: cell-based, human
Description: Various cancer cell lines used were purchased from commercial suppliers. […] The cell suspension and culture medium supplemented with serum were dispensed to a plate containing the test compounds at 40 μL (384 well plate) or 200 μL (96 well plate) per well and incubated in a carbon dioxide gas incubator. […] Six days or seven days after the start of cultivation, 20 μL of CellTiter-Glo (Promega) was added to each well and fluorescence was measured.

[3] = test system: non-small cell lung cancer cell line NC1-1441 with a KRAS mutation; assay: In vivo antitumor activity, mouse xenograft model, NCI-H441; conditions: NCI-H441 (NSCLC) xenograft, 14 days
Description: (§1) Tumor growth inhibition rate (TGI %)=(1−TV/CV)×100

[4] = test system: large bowel carcinoma cell line LS 180; assay: In vivo antitumor activity, mouse xenograft model, LS 180; conditions: LS 180 (Colon) xenograft, 7 days
Description: as §1

[5] = test system: large bowel carcinoma cell line LoVo; conditions: LoVo (Colon) xenograft, 10 mg/kg once daily, 10 days
Description: (§2) Each type of cell line was subcutaneously grafted into nude mice, which were randomized after tumor size reached 200 to 300 mm^3, and compound administration (once daily) was initiated (Day 0). The solvents used to dissolve the compounds were DMSO and Cremophor EL. […] From the tumor volume data on the last measurement day, the tumor growth inhibition rate (TGI %: Tumor Growth Inhibition %) was calculated using the following expressions.
(§3) tumor volume (mm^3):½×long diameter (mm)×short diameter (mm)×short diameter (mm)
(§4) amount of change in tumor volume (mm^3)=tumor volume after Day 0−tumor volume at Day 0 • TV: average value of amount of change in tumor volume in administered group • CV: average value of amount of change in tumor volume in non-administered group

[6] = test system: pancreatic cancer cell line MIA PaCa-2; conditions: MIA PaCa-2 (Pancreas) xenograft, 14 days
Description: as §2, §3, §4

[7] = test system: pancreatic cancer cell line KP4; conditions: KP4 (Pancreas) xenograft, 10 days
Description: as §2, §3, §4

[8] = test system: gastric cancer cell line MKN-1 with an amplified copy number of the KRAS gene; conditions: MKN1 (Stomach) xenograft, 10 days
Description: as §2, §3, §4

human KRAS G12C (human) = human KRAS G12C (human) (UniProt P01116); assay: cell-based or functional assay
human KRAS G12D (human) = human KRAS G12D (human) (UniProt P01116); assay: cell-based or functional assay
human KRAS G12S (human) = human KRAS G12S (human) (UniProt P01116); assay: cell-based or functional assay
human KRAS G12V (human) = human KRAS G12V (human) (UniProt P01116); assay: cell-based or functional assay
[9] = target: human KRAS, gene copy number amplified (human) (UniProt P01116); assay: cell-based or functional assay
human NRAS G13D (human) = human NRAS G13D (human) (UniProt P01111); assay: cell-based or functional assay

Q: Which results are given for `CC[C@H](C)[C@@H]1NC(=O)[C@H](CC(C)C)N(C)C(=O)C[C@@H](C(=O)N(C)C)N(C)C(=O)[C@H](C2CCCC2)N(C)C(=O)C2(CCCC2)NC(=O)[C@@H]2CCCN2C(=O)[C@H](CCc2cc(F)c(C(F)(F)F)c(F)c2)NC(=O)CN(C)C(=O)[C@H](Cc2ccc(C)cc2)N(CC)C(=O)[C@@H]2CCN2C(=O)[C@H](C)N(C)C1=O` [Compound 1217, (5S,8S,11S,15S,18S,23aS,29S,35S,37aS)-8-((S)-sec-butyl)-18-cyclopentyl-29-(3,5-difluoro-4-(trifluoromethyl)phenethyl)-36-ethyl-1l-isobutyl-N,N,5,6,12,16,19,33-octamethyl-35-(4-methylbenzyl)-4,7,10,13,17,20,23,28,31,34,37-undecaoxotetratriacontahydro-2H,4H-spiro[azeto[2,1-u]pyrrolo[2,1-i][1,4,7,10,13,16,19,22,25,28,31]undecaazacyclotetratriacontine-21,1′-cyclopentane]-15-carboxamide] ([NMeL]I[NMeA][Aze][NEtPhe(4-Me)][Sar][hPhe(3,5-F2-4-CF3)]P[Ac5c][NMeGly(cPent)][NMeD]-NMe2; lactam N-11)?
A: IC50 [1]: ≤ 20 nM; IC50 ([2]; A549, NSCLC, KRAS G12S): 0.3 nM; IC50 ([2]; AGS, Stomach, KRAS G12D): 0.32 nM; IC50 ([2]; AML-193, AML, NRAS G13V): 11.8 nM; IC50 ([2]; AsPC-1, Pancreas, KRAS G12D): 0.87 nM; IC50 ([2]; C-643, Thyroid, HRAS G13R): 3.24 nM; IC50 ([2]; CFPAC-1, Pancreas, KRAS G12V): 17.3 nM; IC50 ([2]; COR-L23, NSCLC, KRAS Amp (G12V)): 2.85 nM; IC50 ([2]; Calu-6, NSCLC, KRAS Q61K): 43.7 nM; IC50 ([2]; DLD-1, Colon, KRAS G13D): 5.08 nM; IC50 ([2]; DMS 53, SCLC, KRAS Amp): 12.2 nM; IC50 ([2]; FAMPAC, Pancreas, KRAS G12V): 2.09 nM; IC50 ([2]; HCC-44, NSCLC, KRAS G12C): 0.55 nM; IC50 ([2]; HCC-1171, NSCLC, KRAS G12C): 4.86 nM; IC50 ([2]; HCT-116, Colon, KRAS G13D): 8.58 nM; IC50 ([2]; HEC-50B, Endometrium, KRAS G12D): 43.8 nM; IC50 ([2]; HEC-151, Endometrium, NRAS G12D): 2.42 nM; IC50 ([2]; HLG-1, NSCLC, KRAS G12V): 3.29 nM; IC50 ([2]; HPAC, Pancreas, KRAS G12D): 2.19 nM; IC50 ([2]; HuG1-N, Stomach, KRAS Amp): 3.74 nM; IC50 ([2]; IPC-298, Skin, NRAS Q61L): 23.5 nM; IC50 ([2]; KE-39, Stomach, KRAS Amp): 0.8 nM; IC50 ([2]; KLE, Endometrium, KRAS Amp): 170 nM; IC50 ([2]; KMM-1, Myeloma, NRAS G13D): 8.59 nM; IC50 ([2]; KP4, Pancreas, KRAS G12D): 3.3 nM; IC50 ([2]; KURAMOCHI, Ovary, KRAS Amp): 1.18 nM; IC50 ([2]; LS 174T, Colon, KRAS G12D): 4.31 nM; IC50 ([2]; LS 180, Colon, KRAS G12D): 0.83 nM; IC50 ([2]; LS513, Colon, KRAS G12D): 3.69 nM; IC50 ([2]; LoVo, Colon, KRAS G13D): 5.5 nM; IC50 ([2]; MIA PaCa-2, Pancreas, KRAS G12C): 1.45 nM; IC50 ([2]; MKN-1, Stomach, KRAS Amp): 1.77 nM; IC50 ([2]; MOLT-4, ALL, NRAS G12C): 175 nM; IC50 ([2]; NCI-H23, NSCLC, KRAS G12C): 3.92 nM; IC50 ([2]; NCI-H358, NSCLC, KRAS G12C): 1.55 nM; IC50 ([2]; NCI-H441, NSCLC, KRAS G12V): 1.12 nM; IC50 ([2]; NCI-H460, NSCLC, KRAS Q61H): 4.2 nM; IC50 ([2]; NCI-H929, Myeloma, NRAS G13D): 9.79 nM; IC50 ([2]; NCI-H1373, NSCLC, KRAS G12C): 2.33 nM; IC50 ([2]; NCI-H1385, NSCLC, KRAS G12C): 14.3 nM; IC50 ([2]; NCI-H1792, NSCLC, KRAS G12C): 0.86 nM; IC50 ([2]; NCI-H1944, NSCLC, KRAS G13D): 2.53 nM; IC50 ([2]; NCI-H2009, NSCLC, KRAS G12A): 2.35 nM; IC50 ([2]; NCI-H2030, NSCLC, KRAS G12C): 4.05 nM; IC50 ([2]; NCI-H2122, NSCLC, KRAS G12C): 0.8 nM; IC50 ([2]; NOMO-1, AML, KRAS G13D): 6.5 nM; IC50 ([2]; PA-1, Ovary, NRAS G12D): 2.38 nM; IC50 ([2]; PANC-1, Pancreas, KRAS G12D): 44.3 nM; IC50 ([2]; RERF-LC-Ad2, NSCLC, KRAS G12V): 5.2 nM; IC50 ([2]; SK-CO-1, Colon, KRAS G12V): 0.49 nM; IC50 ([2]; SK-LU-1, NSCLC, KRAS G12D): 26 nM; IC50 ([2]; SK-MEL-30, Skin, NRAS Q61K): 91.6 nM; IC50 ([2]; SNU-1, Stomach, KRAS G12D): 0.46 nM; IC50 ([2]; SW403, Colon, KRAS G12V): 4.1 nM; IC50 ([2]; SW480, Colon, KRAS G12V): 4.31 nM; IC50 ([2]; T.T, Esophageal, KRAS Amp): 5.68 nM; IC50 ([2]; TYK-nu, Ovary, NRAS G12D, Q61K): 1.14 nM; IC50 ([2]; UM-UC-3, Bladder, KRAS G12C): 2.11 nM; TGI (%) ([3]; 3 mg/kg once daily): 59%; TGI (%) ([3]; 5 mg/kg once daily): 92%; TGI (%) ([3]; 10 mg/kg once daily): 110%; TGI (%) ([4]; 3 mg/kg once daily): 11%; TGI (%) ([4]; 5 mg/kg once daily): 38%; TGI (%) ([4]; 10 mg/kg once daily): 65%; TGI (%) [5]: 85%; TGI (%) ([6]; 3 mg/kg once daily): 16%; TGI (%) ([6]; 5 mg/kg once daily): 65%; TGI (%) ([6]; 10 mg/kg once daily): 149%; TGI (%) ([7]; 5 mg/kg once daily): 65%; TGI (%) ([7]; 10 mg/kg once daily): 104%; TGI (%) ([8]; 5 mg/kg once daily): 55%; TGI (%) ([8]; 10 mg/kg once daily): 205%

B1: Compound 558 (peptide)
peptide: [NMeL]I[Sar][Sar][NMeCha][Sar][hPhe(3-Cl-4-CF3)]P[Ac5c][NMeChg]D-Piperidide
modifications: lactam N-11; not fully specified (residue 11)
Q: Which results are given for B1?
A: IC50, cell growth inhibition (CellTiter-Glo), MIA PaCa-2 (Pancreas) (human KRAS G12C (human)): 18.7 nM; IC50, cell growth inhibition (CellTiter-Glo), LS 180 (Colon) (human KRAS G12D (human)): 22.6 nM; IC50, cell growth inhibition (CellTiter-Glo), SNU-1 (Stomach) (human KRAS G12D (human)): 29.8 nM; IC50, cell growth inhibition (CellTiter-Glo), A549 (NSCLC) (human KRAS G12S (human)): 7.98 nM; IC50, cell growth inhibition (CellTiter-Glo), NCI-H441 (NSCLC) (human KRAS G12V (human)): 31.6 nM; IC50, cell growth inhibition (CellTiter-Glo), SW480 (Colon) (human KRAS G12V (human)): 17.5 nM; IC50, cell growth inhibition (CellTiter-Glo), A4/Fuk (Non-Hodgkin lymphoma), KRAS Amp [9]: 5.83 nM; IC50, cell growth inhibition (CellTiter-Glo), KURAMOCHI (Ovary), KRAS Amp [9]: 23.4 nM; IC50, cell growth inhibition (CellTiter-Glo), NCI-H929 (Myeloma) (human NRAS G13D (human)): 55.7 nM
